In patent publication US12331040B2 (Karyopharm Therapeutics Inc., priority 2013, dated 2025):
Where two headings read alike, the source gives them in different places.

Experiments:
Test in all cases: MTT cell proliferation assay
Assay type in all cases: cell-based
[1] = system: 3T3 cells; conditions: Mus musculus, NIH3T3, approximately 64-72 hours incubation
How it was run: (§1)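 5,000-10,000 cells/well, overnight attach; 8 conc., 1 nM–30 μM; MTT ~4 h; formazan solubilized, OD 490 nm; % inhibition = (1−(ODo/OD))×100 vs neg. control; mostly duplicate, mean±SE.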

[2] = system: MS751 cells; conditions: Homo sapiens, MS751, MS751 cells, approximately 64-72 hours incubation
How it was run: as §1

[3] = system: Z138 cells; conditions: Homo sapiens, Z-138, Z138 cells, approximately 64-72 hours incubation
How it was run: as §1

[4] = read-out: MTT Assay IC50 MS-751
[5] = read-out: MTT Assay IC50, MS-751
[6] = read-out: MTT Assay IC50, Z-138

| Compound | IC50 ([1]; read-out: MTT Assay IC50 3T3) [µM] | IC50 [2, 4] [µM] | IC50 ([3]; read-out: MTT Assay IC50 Z-138) [µM] | IC50 ([1]; read-out: MTT Assay IC50, 3T3) [µM] | IC50 [2, 5] [µM] | IC50 [3, 6] [µM] |
| --- | --- | --- | --- | --- | --- | --- |
| Nc1ccc(/C=C/C(=O)NCc2cc3cc(-c4ccc(C(=O)N5CCC(C(F)(F)F)CC5)cc4)cc(C(F)(F)F)c3o2)cn1 [Compound 605, (E)-3-(6-aminopyridin-3-yl)-N-((7-(trifluoromethyl)-5-(4-(4-(trifluoromethyl)piperidine-1-carbonyl)phenyl)benzofuran-2-yl)methyl)acrylamide] | > 10 | 0.1 to 5 | 0.1 to 5 |  |  |  |
| Nc1ccc(/C=C/C(=O)NCc2cc3cc(-c4ccc5occc5c4)cc(-c4ccc(F)cc4F)c3o2)cn1 [Compound 759, (E)-3-(6-aminopyridin-3-yl)-N-((7-(2,4-difluorophenyl)-5,5′-bibenzofuran-2-yl)methyl)acrylamide] |  |  |  | > 10 | 0.1 to 5 | < 0.1 |
| Nc1ccc(/C=C/C(=O)NCc2cc3cc(-c4ccc(C(=O)N5CCC(F)(F)CC5)cc4F)cc(-c4cccnc4)c3o2)cn1 [Compound 748, (E)-3-(6-aminopyridin-3-yl)-N-((5-(4-(4,4-difluoropiperidine-1-carbonyl)-2-fluorophenyl)-7-(pyridin-3-yl)benzofuran-2-yl)methyl)acrylamide] |  |  |  | 0.1 to 5 | < 0.1 | < 0.1 |
| Nc1ccc(/C=C/C(=O)NCc2nc3cc(-c4ccc(C(=O)N5CCOCC5)cc4)cc(Cl)c3o2)cn1 [Compound 501, (E)-3-(6-aminopyridin-3-yl)-N-((7-chloro-5-(4-(morpholine-4-carbonyl)phenyl)benzo[d]oxazol-2-yl)methyl)acrylamide] | > 10 | 0.1 to 5 | 0.1 to 5 |  |  |  |
| Nc1ccc(/C=C/C(=O)NCc2cc3cc(-c4ccc(C(=O)N5CCC(O)(C(F)(F)F)CC5)cn4)cc(C(F)(F)F)c3o2)cn1 [Compound 616, (E)-3-(6-aminopyridin-3-yl)-N-((5-(5-(4-hydroxy-4-(trifluoromethyl)piperidine-1-carbonyl)pyridin-2-yl)-7-(trifluoromethyl)benzofuran-2-yl)methyl)acrylamide] | > 10 | < 0.1 | < 0.1 |  |  |  |
| CN(C)c1ccc(-c2cc(Cl)c3oc(CNC(=O)/C=C/c4ccc(N)nc4)cc3c2)nc1 [Compound 646, (E)-3-(6-aminopyridin-3-yl)-N-((7-chloro-5-(5-(dimethylamino)pyridin-2-yl)benzofuran-2-yl)methyl)acrylamide] | > 10 | > 10 | > 10 |  |  |  |
| Cc1cc(F)ncc1-c1cc(-c2ccc(C(=O)N3CCC(F)(F)CC3)cc2)cc2cc(CNC(=O)/C=C/c3ccc(N)nc3)oc12 [Compound 743, (E)-3-(6-aminopyridin-3-yl)-N-((5-(4-(4,4-difluoropiperidine-1-carbonyl)phenyl)-7-(6-fluoro-4-methylpyridin-3-yl)benzofuran-2-yl)methyl)acrylamide] |  |  |  | 0.1 to 5 | < 0.1 | < 0.1 |
| CC(=O)c1ccc(-c2ccc3oc(CNC(=O)/C=C/c4ccc(N)nc4)cc3c2)s1 [Compound 503, (E)-N-((5-(5-acetylthiophen-2-yl)benzofuran-2-yl)methyl)-3-(6-aminopyridin-3-yl)acrylamide] | > 10 | 0.1 to 5 | > 10 |  |  |  |
| CC1(F)CCN(C(=O)c2ccc(-c3cc(C(F)(F)F)c4oc(CNC(=O)/C=C/c5ccc(N)nc5)cc4c3)nc2)C1 (single isomer, unassigned) [Compound 654, (E)-3-(6-aminopyridin-3-yl)-N-((5-(5-(3-fluoro-3-methylpyrrolidine-1-carbonyl)pyridin-2-yl)-7-(trifluoromethyl)benzofuran-2-yl)methyl)acrylamide] | > 10 | < 0.1 | < 0.1 |  |  |  |
| Nc1ccc(/C=C/C(=O)NCc2cc3cc(-c4ccc(C(=O)N5CCC(F)(F)CC5)cc4)cc(-c4cccc(Cl)c4)c3o2)cn1 [Compound 741, (E)-3-(6-aminopyridin-3-yl)-N-((7-(3-chlorophenyl)-5-(4-(4,4-difluoropiperidine-1-carbonyl)phenyl)benzofuran-2-yl)methyl)acrylamide] |  |  |  | 0.1 to 5 | < 0.1 | < 0.1 |
| O=C(/C=C/c1ccncc1)NCc1cc2cc(-c3ccc(C(=O)N4CCOCC4)cc3)cc(Cl)c2o1 [Compound 535, (E)-N-((7-Chloro-5-(4-(morpholine-4-carbonyl)phenyl)benzofuran-2-yl)methyl)-3-(pyridin-4-yl)acrylamide] | > 10 | > 10 | > 10 |  |  |  |
| Nc1ccc(/C=C/C(=O)NCc2cc3cc(-c4ccc(C(=O)N5CC(F)(F)C5)cc4)cc(Cl)c3o2)cn1 [Compound 508, (E)-3-(6-aminopyridin-3-yl)-N-((7-chloro-5-(4-(3,3-difluoroazetidine-1-carbonyl)phenyl)benzofuran-2-yl)methyl)acrylamide] | > 10 | 0.1 to 5 | 0.1 to 5 |  |  |  |
| Nc1ccc(/C=C/C(=O)NCc2cc3cc(-c4ccc(C(=O)N5CCC(F)(F)CC5)cc4)cc(-c4ccc(F)nc4F)c3o2)cn1 [Compound 754, (E)-3-(6-aminopyridin-3-yl)-N-((5-(4-(4,4-difluoropiperidine-1-carbonyl)phenyl)-7-(2,6-difluoropyridin-3-yl)benzofuran-2-yl)methyl)acrylamide] |  |  |  | 0.1 to 5 | < 0.1 | < 0.1 |
| Nc1ccc(/C=C/C(=O)NCCc2cc3cc(-c4ccc(C(=O)N5CCC(F)(F)CC5)cn4)cc(C(F)(F)F)c3o2)cn1 [Compound 690, (E)-3-(6-aminopyridin-3-yl)-N-(2-(5-(5-(4,4-difluoropiperidine-1-carbonyl)pyridin-2-yl)-7-(trifluoromethyl)benzofuran-2-yl)ethyl)acrylamide] |  |  |  | 0.1 to 5 | < 0.1 | < 0.1 |
| COc1cc(-c2ncc(C(=O)N3CCNCC3)cn2)cc2cc(CNC(=O)/C=C/c3ccc(N)nc3)oc12 [Compound 639, (E)-3-(6-aminopyridin-3-yl)-N-((7-methoxy-5-(5-(piperazine-1-carbonyl)pyrimidin-2-yl)benzofuran-2-yl)methyl)acrylamide] | > 10 | 0.1 to 5 | 0.1 to 5 |  |  |  |
| CC(C)(C)c1cc(-c2ccc(C(=O)N3CCOCC3)cc2)cc2cc(CNC(=O)/C=C/c3ccc(N)nc3)oc12 [Compound 511, (E)-3-(6-aminopyridin-3-yl)-N-((7-tert-butyl-5-(4-(morpholine-4-carbonyl)phenyl)benzofuran-2-yl)methyl)acrylamide] | > 10 | 0.1 to 5 | 0.1 to 5 |  |  |  |
| Nc1ccc(/C=C/C(=O)NCc2cc3cc(-c4ccc(C(=O)N5CCOCC5)c(F)c4F)cc(Cl)c3o2)cn1 [Compound 548, (E)-3-(6-aminopyridin-3-yl)-N-((7-chloro-5-(2,3-difluoro-4-(morpholine-4-carbonyl)phenyl)benzofuran-2-yl)methyl)acrylamide] | > 10 | 0.1 to 5 | 0.1 to 5 |  |  |  |
| Nc1ccc(/C=C/C(=O)NCc2cc3cc(-c4ncc(C(=O)N5CCNCC5)cn4)cc(C(F)(F)F)c3o2)cn1 [Compound 590, (E)-3-(6-aminopyridin-3-yl)-N-((5-(5-(piperazine-1-carbonyl)pyrimidin-2-yl)-7-(trifluoromethyl)benzofuran-2-yl)methyl)acrylamide] | > 10 | 0.1 to 5 | 0.1 to 5 |  |  |  |
| Nc1ccc(/C=C/C(=O)NCc2cc3cc(-c4cncc(C(=O)N5CCOCC5)c4)cc(Cl)c3o2)cn1 [Compound 534, (E)-3-(6-aminopyridin-3-yl)-N-((7-chloro-5-(5-(morpholine-4-carbonyl)pyridin-3-yl)benzofuran-2-yl)methyl)acrylamide] | > 10 | 0.1 to 5 | 0.1 to 5 |  |  |  |
| Nc1ccc(/C=C/C(=O)NCc2cc3cc(-c4cccc(C(=O)N5CCOCC5)c4)cc(Cl)c3o2)cn1 [Compound 543, (E)-3-(6-Aminopyridin-3-yl)-N-((7-chloro-5-(3-(morpholine-4-carbonyl)phenyl)benzofuran-2-yl)methyl)acrylamide] | 0.1 to 5 | < 0.1 | < 0.1 |  |  |  |
| Nc1ccc(/C=C/C(=O)NCc2cc3cc(-c4ccc(C(=O)N5CC6CC6C5)cn4)cc(C(F)(F)F)c3o2)cn1 (stereo not drawn) [Compound 623, (E)-N-((5-(5-(3-azabicyclo[3.1.0]hexane-3-carbonyl)pyridin-2-yl)-7-(trifluoromethyl)benzofuran-2-yl)methyl)-3-(6-aminopyridin-3-yl)acrylamide] | > 10 | 0.1 to 5 | 0.1 to 5 |  |  |  |
| Nc1ccc(/C=C/C(=O)NCc2cc3cc(-c4ccc(OC(=O)N5CCOCC5)cc4)cc(Cl)c3o2)cn1 [Compound 556, (E)-4-(2-((3-(6-aminopyridin-3-yl)acrylamido)methyl)-7-chlorobenzofuran-5-yl)phenyl morpholine-4-carboxylate] | > 10 | 0.1 to 5 | 0.1 to 5 |  |  |  |
| Nc1ccc(/C=C/C(=O)NCc2cc3cc(-c4ccc(NC(=O)N5CCOCC5)cc4)cc(Cl)c3o2)cn1 [Compound 582, (E)-N-(4-(2-((3-(6-aminopyridin-3-yl)acrylamido)methyl)-7-chlorobenzofuran-5-yl)phenyl)morpholine-4-carboxamide] | > 10 | 5 to 10 | 5 to 10 |  |  |  |
| Nc1ccc(/C=C/C(=O)NCc2cc3cc(-c4ccc(C(=O)N5CCC(O)(C(F)(F)F)C5)cn4)cc(C(F)(F)F)c3o2)cn1 (stereo not drawn) [Compound 613, (E)-3-(6-aminopyridin-3-yl)-N-((5-(5-(3-hydroxy-3-(trifluoromethyl)pyrrolidine-1-carbonyl)pyridin-2-yl)-7-(trifluoromethyl)benzofuran-2-yl)methyl)acrylamide] | > 10 | 0.1 to 5 | < 0.1 |  |  |  |
